Source: US20230053540A1, “TREATMENT OF LIVER INJURY” (Massachusetts Institute of Technology, priority 2019, published 2023)

Tested on: hepatocytes
Assay: Seq-Well scRNA-Seq of hepatocytes after APAP overdose (signature scores, DEG vs untreated)
Type: in vivo, mouse
Settings: APAP vs. UT

SMILES: CC(=O)Nc1ccc(O)cc1 [APAP, acetaminophen]
- Hmgcs2 avg_logFC: 0.3105
- Hmgcs2 pct.1: 0.974
- Hmox1 avg_logFC: 0.3298
- Hmox1 pct.1: 0.108
- Hnf4a avg_logFC: 0.4538
- Hnf4a pct.1: 0.876
- Hp avg_logFC: 0.2604
- Hp pct.1: 0.998
- Hrg avg_logFC: 0.321
- Hrg pct.1: 0.88
- Hsd3b5 avg_logFC: −0.4712
- Hsd3b5 pct.1: 0.367
- Hsd17b13 avg_logFC: 0.4437
- Hsd17b13 pct.1: 0.798
- Hspa5 avg_logFC: 0.4048
- Hspa5 pct.1: 0.971
- Hyou1 avg_logFC: 0.3658
- Hyou1 pct.1: 0.561
- Igfbp4 avg_logFC: 0.3148
- Igfbp4 pct.1: 0.919
- Iigp1 avg_logFC: 0.3448
- Iigp1 pct.1: 0.851
- Il1r1 avg_logFC: 0.3633
- Il1r1 pct.1: 0.39
- Insig1 avg_logFC: 0.2541
- Insig1 pct.1: 0.597
- Itih2 avg_logFC: 0.2682
- Itih2 pct.1: 0.942
- Kif1b avg_logFC: 0.264
- Kif1b pct.1: 0.629
- Krt18 avg_logFC: 0.3307
- Krt18 pct.1: 0.72
- Lars2 avg_logFC: 1.069
- Lars2 pct.1: 0.997
- Lifr avg_logFC: −0.3532
- Lifr pct.1: 0.608
- Lipa avg_logFC: 0.2577
- Lipa pct.1: 0.73
- Lpgat1 avg_logFC: 0.3539
- Lpgat1 pct.1: 0.693
- Lpin2 avg_logFC: 0.3984
- Lpin2 pct.1: 0.79
- Lrg1 avg_logFC: 0.3478
- Lrg1 pct.1: 0.861
- Lrrc58 avg_logFC: 0.2998
- Lrrc58 pct.1: 0.542
- Man2a1 avg_logFC: 0.3404
- Man2a1 pct.1: 0.742
- Mat1a avg_logFC: 0.75
- Mat1a pct.1: 0.983
- Mbnl1 avg_logFC: 0.251
- Mbnl1 pct.1: 0.511
- Mfsd2a avg_logFC: 0.4484
- Mfsd2a pct.1: 0.413
- Mia3 avg_logFC: 0.2557
- Mia3 pct.1: 0.749
- Mt1 avg_logFC: 0.8909
- Mt1 pct.1: 0.701
- Mt2 avg_logFC: 0.6697
- Mt2 pct.1: 0.518
- Mup3 avg_logFC: −0.5425
- Mup3 pct.1: 0.999
- Mup4 avg_logFC: −1.001
- Mup4 pct.1: 0.716
- Mup5 avg_logFC: −1.342
- Mup5 pct.1: 0.541
- Mup6 avg_logFC: −1.882
- Mup6 pct.1: 0.804
- Mup7 avg_logFC: −0.6015
- Mup7 pct.1: 0.937
- Mup8 avg_logFC: −0.7268
- Mup8 pct.1: 0.13
- Mup9 avg_logFC: −1.914
- Mup9 pct.1: 0.594
- Mup11 avg_logFC: −1.728
- Mup11 pct.1: 0.84
- Mup12 avg_logFC: −0.3713
- Mup12 pct.1: 0.665
- Mup15 avg_logFC: −1.26
- Mup15 pct.1: 0.166
- Mup16 avg_logFC: −1.125
- Mup16 pct.1: 0.594
- Mup17 avg_logFC: −2.017
- Mup17 pct.1: 0.947
- Mup18 avg_logFC: −1.639
- Mup18 pct.1: 0.838
- Mup19 avg_logFC: −1.786
- Mup19 pct.1: 0.916
- Mup21 avg_logFC: −0.8723
- Mup21 pct.1: 0.702
- Myh9 avg_logFC: 0.4507
- Myh9 pct.1: 0.531
- Ndrg2 avg_logFC: 0.2845
- Ndrg2 pct.1: 0.956
- Ndufa4 avg_logFC: −0.2617
- Ndufa4 pct.1: 0.851
- Ndufs6 avg_logFC: −0.2721
- Ndufs6 pct.1: 0.678
- Nudt7 avg_logFC: −0.6192
- Nudt7 pct.1: 0.691
- P4hb avg_logFC: 0.2586
- P4hb pct.1: 0.958
- Pabpc1 avg_logFC: 0.3735
- Pabpc1 pct.1: 0.75
- Picalm avg_logFC: 0.2666
- Picalm pct.1: 0.558
- Pigr avg_logFC: 0.2747
- Pigr pct.1: 0.952
- Plin2 avg_logFC: 0.3714
- Plin2 pct.1: 0.799
- Prdx1 avg_logFC: −0.3499
- Prdx1 pct.1: 0.878
- Prdx4 avg_logFC: −0.2905
- Prdx4 pct.1: 0.55
- Pten avg_logFC: 0.265
- Pten pct.1: 0.645
- Ranbp2 avg_logFC: 0.2567
- Ranbp2 pct.1: 0.555
- Reep6 avg_logFC: 0.2892
- Reep6 pct.1: 0.837
- Retsat avg_logFC: 0.4126
- Retsat pct.1: 0.87
- Rora avg_logFC: 0.2853
- Rora pct.1: 0.547
- Rpl36al avg_logFC: −0.2702
- Rpl36al pct.1: 0.495
- Rps15 avg_logFC: −0.2722
- Rps15 pct.1: 0.49
- S100a9 avg_logFC: 0.3176
- S100a9 pct.1: 0.058
- Sdhc avg_logFC: 0.2605
- Sdhc pct.1: 0.738
- Sec61a1 avg_logFC: 0.2648
- Sec61a1 pct.1: 0.642
- Selenbp2 avg_logFC: −0.8304
- Selenbp2 pct.1: 0.751
- Sephs2 avg_logFC: 0.4286
- Sephs2 pct.1: 0.865
- Sepp1 avg_logFC: 0.3455
- Sepp1 pct.1: 1
- Serpina1a avg_logFC: −0.3347
- Serpina1a pct.1: 0.96
- Serpina1e avg_logFC: −0.4681
- Serpina1e pct.1: 0.99
- Serpina3m avg_logFC: 0.4597
- Serpina3m pct.1: 0.836
- Serpina3n avg_logFC: 0.4496
- Serpina3n pct.1: 0.76
- Serpina12 avg_logFC: −0.279
- Serpina12 pct.1: 0.362
- Sfxn1 avg_logFC: 0.2624
- Sfxn1 pct.1: 0.636
- Sh3glb1 avg_logFC: 0.2521
- Sh3glb1 pct.1: 0.47
- Slc4a4 avg_logFC: 0.2827
- Slc4a4 pct.1: 0.558
- Slc25a47 avg_logFC: 0.3096
- Slc25a47 pct.1: 0.927
- Slc39a14 avg_logFC: 0.356
- Slc39a14 pct.1: 0.552
- Slc40a1 avg_logFC: 0.2768
- Slc40a1 pct.1: 0.517
- Slco1a4 avg_logFC: 0.3826
- Slco1a4 pct.1: 0.484
- Snord118 avg_logFC: 0.4707
- Snord118 pct.1: 0.531
- Srxn1 avg_logFC: 0.564
- Srxn1 pct.1: 0.369
- Ssr3 avg_logFC: 0.2529
- Ssr3 pct.1: 0.732
- St3gal5 avg_logFC: 0.3876
- St3gal5 pct.1: 0.695
- Sult1a1 avg_logFC: 0.3652
- Sult1a1 pct.1: 0.799
- Tgoln1 avg_logFC: 0.2677
- Tgoln1 pct.1: 0.713
- Tm4sf4 avg_logFC: 0.276
- Tm4sf4 pct.1: 0.493
- Tmed5 avg_logFC: 0.3027
- Tmed5 pct.1: 0.689
- Tmem205 avg_logFC: −0.2953
- Tmem205 pct.1: 0.877
- Tnfrsf12a avg_logFC: 0.2588
- Tnfrsf12a pct.1: 0.193
- Trp53inp1 avg_logFC: 0.3977
- Trp53inp1 pct.1: 0.526
- Ttpa avg_logFC: 0.3932
- Ttpa pct.1: 0.916
- Txnrd1 pct.1: 0.64
- Uroc1 avg_logFC: 0.3135
- Uroc1 pct.1: 0.74
- Usp9x avg_logFC: 0.2541
- Usp9x pct.1: 0.503
- Wbp1l avg_logFC: 0.3662
- Wbp1l pct.1: 0.768
- Zfp91 avg_logFC: 0.2619
- Zfp91 pct.1: 0.666
- mmu-mir-6240 avg_logFC: 0.3395
- mmu-mir-6240 pct.1: 0.22
- mt-Co1 avg_logFC: −0.9219
- mt-Co1 pct.1: 0.977
- mt-Co2 avg_logFC: −1.078
